Measured values taken from patent publication US11814367B2, “Inhibitors of glycogen synthase 1 (GYS1) and methods of use thereof” (Maze Therapeutics, Inc., priority 2021, dated 2023).

Columns and labels:
[1] = target: hGYS2 enzyme (recombinant hGYS2/GN1 protein) (Homo sapiens (Human), UniProt P54840); experiment: GYS2 coupled enzyme assay (PK/LDH); type: biochemical; conditions: geometric mean of at least 2 assay runs on separate days, read-out: Avg_IC50
Procedure, shortened: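 Continuous PK/LDH-coupled readout of NADH loss at 340 nm over 10 min, with 200 nM hGYS2/GN1 and 2 mM each of UDP-glucose, glucose-6-phosphate and PEP, in 50 mM Tris pH 7.5 with 0.2% glycogen and 2.5% DMSO. Slopes were normalized to controls and IC50s fit to a Hill curve from duplicates.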

[2] = system: hGYS1 enzyme / glycogen synthesis in HeLa cells; experiment: GYS1 cell based assay (glycogen synthesis, Glucose-glo); set-up: species or system human; conditions: 24 h incubation, 20 mM glucose, geometric mean of at least 2 runs
Procedure, shortened: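 HeLa cells starved 24 h in medium containing only 1× Glutamax were plated onto compound in medium with 20 mM glucose (1% DMSO final) for 24 h, 37 °C, 5% CO2. Acid lysates were Tris-quenched, glucoamylase-digested (pH 5.3, 1 h, 37 °C) and read by Glucose-glo luminescence. IC50 came from Hill fits, as geometric mean of ≥2 runs.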

[3] = target: hGYS1 enzyme (recombinant hGYS1/GN1 protein) (Homo sapiens (Human), UniProt P13807); experiment: GYS1 coupled enzyme assay (PK/LDH); type: biochemical; conditions: hGYS1/GN1 50 nM, UDP-Glucose 0.8 mM, G6P 1 mM; geometric mean of at least 2 runs
Chain of hGYS1 enzyme (recombinant hGYS1/GN1 protein) (P13807 whole entry): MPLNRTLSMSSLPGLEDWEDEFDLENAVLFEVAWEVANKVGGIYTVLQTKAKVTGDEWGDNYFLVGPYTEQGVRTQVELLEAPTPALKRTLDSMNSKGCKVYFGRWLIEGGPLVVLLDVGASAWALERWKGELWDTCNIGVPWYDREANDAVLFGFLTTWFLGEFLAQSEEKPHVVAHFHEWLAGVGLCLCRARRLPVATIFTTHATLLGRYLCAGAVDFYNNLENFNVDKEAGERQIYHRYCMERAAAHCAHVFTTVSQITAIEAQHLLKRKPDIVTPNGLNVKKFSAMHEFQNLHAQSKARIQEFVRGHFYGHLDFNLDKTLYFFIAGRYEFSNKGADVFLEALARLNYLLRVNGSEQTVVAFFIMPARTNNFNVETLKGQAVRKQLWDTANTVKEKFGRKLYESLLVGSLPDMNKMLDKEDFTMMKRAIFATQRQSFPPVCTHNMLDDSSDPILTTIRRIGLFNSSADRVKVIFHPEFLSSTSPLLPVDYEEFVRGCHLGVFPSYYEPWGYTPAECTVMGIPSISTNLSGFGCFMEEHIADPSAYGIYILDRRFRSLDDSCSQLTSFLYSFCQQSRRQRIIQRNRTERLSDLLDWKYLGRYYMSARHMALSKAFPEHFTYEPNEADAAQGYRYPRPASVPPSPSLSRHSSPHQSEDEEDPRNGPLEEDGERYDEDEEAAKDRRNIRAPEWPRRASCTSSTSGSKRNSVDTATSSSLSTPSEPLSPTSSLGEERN
Chain of hGYS1 enzyme (recombinant hGYS1/GN1 protein) (P46976 whole entry partner): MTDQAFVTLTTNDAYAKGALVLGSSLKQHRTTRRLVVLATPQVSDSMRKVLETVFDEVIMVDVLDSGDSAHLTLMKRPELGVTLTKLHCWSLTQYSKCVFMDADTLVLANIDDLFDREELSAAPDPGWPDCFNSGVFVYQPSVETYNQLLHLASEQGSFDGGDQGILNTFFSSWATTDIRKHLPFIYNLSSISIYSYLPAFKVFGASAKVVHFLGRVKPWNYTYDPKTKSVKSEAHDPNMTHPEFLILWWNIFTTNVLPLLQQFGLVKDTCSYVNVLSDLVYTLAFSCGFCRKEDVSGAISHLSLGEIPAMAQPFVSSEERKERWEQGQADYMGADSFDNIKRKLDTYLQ

Chain of hGYS2 enzyme (recombinant hGYS2/GN1 protein) (P54840 whole entry): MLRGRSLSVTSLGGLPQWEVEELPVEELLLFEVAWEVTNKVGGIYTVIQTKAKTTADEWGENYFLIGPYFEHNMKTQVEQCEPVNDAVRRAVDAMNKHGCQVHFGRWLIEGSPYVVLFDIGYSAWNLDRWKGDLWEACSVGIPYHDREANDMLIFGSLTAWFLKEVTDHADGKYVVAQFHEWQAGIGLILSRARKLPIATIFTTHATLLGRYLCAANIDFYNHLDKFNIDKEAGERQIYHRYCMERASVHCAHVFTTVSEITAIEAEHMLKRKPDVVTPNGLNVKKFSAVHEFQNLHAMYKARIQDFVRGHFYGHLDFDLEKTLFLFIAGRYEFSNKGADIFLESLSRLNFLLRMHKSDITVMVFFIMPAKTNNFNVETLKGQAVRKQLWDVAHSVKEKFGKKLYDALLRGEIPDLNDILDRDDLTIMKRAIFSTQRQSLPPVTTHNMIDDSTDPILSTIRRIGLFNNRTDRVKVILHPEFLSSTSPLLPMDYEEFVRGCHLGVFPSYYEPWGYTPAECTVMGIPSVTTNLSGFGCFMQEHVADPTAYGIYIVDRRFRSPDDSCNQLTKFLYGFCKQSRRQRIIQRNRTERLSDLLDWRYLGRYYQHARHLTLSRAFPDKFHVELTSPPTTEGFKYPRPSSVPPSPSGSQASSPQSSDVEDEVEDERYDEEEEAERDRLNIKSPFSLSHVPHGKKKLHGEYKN
Chain of hGYS2 enzyme (recombinant hGYS2/GN1 protein) (P46976 whole entry partner): as the sequence (P46976 whole entry partner) above

IC50 [1] [nM] | IC50 ([2]; Homo sapiens, HeLa, 24 h) [nM] | IC50 [3] [nM] | IC50 [2] [nM] | Structure (SMILES)
> 100000 | 1220 | 12 | – | Cc1cn(CC(=O)N2C[C@H](F)C[C@H]2C(=O)N[C@@H](c2ccccc2)c2ccc(C3CC(F)(F)C3)cn2)c(=O)[nH]c1=O [Compound 535, (2S,4R)-N-[(S)-[5-(3,3-difluorocyclobutyl)pyridin-2-yl](phenyl)methyl]-4-fluoro-1-[2-(5-methyl-2,4-dioxo-1,2,3,4-tetrahydropyrimidin-1-yl)acetyl] pyrrolidine-2-carboxamide]
> 100000 | 710 | 96 | – | O=C(NC(c1ccccc1)c1ccc(C2CCC2)c(F)c1)[C@@H]1C[C@@H](F)CN1C(=O)Cc1cnn[nH]1 (single isomer, unassigned) [Compound 674, (2S,4R)-N-[(S) or (R)-(4-cyclobutyl-3-fluorophenyl) (phenyl)methyl]-4-fluoro-1-[2-(1H-1,2,3-triazol-5-yl)acetyl]pyrrolidine-2-carboxamide]
> 100000 | 540 | 8 | – | O=C(N[C@@H](c1ccccc1)c1ccc(C2CC(F)(F)C2)c(F)n1)[C@@H]1C[C@@H](F)CN1C(=O)Cc1ccc[nH]c1=O [Compound 517, (2S,4R)-N-[(S)-[5-(3,3-difluorocyclobutyl)-6-fluoropyridin-2-yl](phenyl)methyl]-4-fluoro-1-[2-(2-oxo-1,2-dihydropyridin-3-yl)acetyl]pyrrolidine-2-carboxamide]
> 100000 | 470 | 27 | – | CC(C)c1ccc([C@@H](NC(=O)[C@@H]2C[C@@H](F)CN2C(=O)COc2cccnn2)c2ccccc2)cc1 [Compound 21, (2S,4R)-4-fluoro-N-[(S)-phenyl[4-(propan-2-yl)phenyl]methyl]-1-[2-(pyridazin-3-yloxy)acetyl]pyrrolidine-2-carboxamide]
> 100000 | 710 | 39 | – | O=C(N[C@@H](c1ccccc1)c1ccc(C2CC2)c(F)n1)[C@@H]1C[C@@H](F)CN1C(=O)Cn1ccc(C(F)F)n1 [Compound 729, (2S,4R)-N-[(S)-(5-cyclopropyl-6-fluoropyridin-2-yl)(phenyl)methyl]-1-{2-[3-(difluoromethyl)-1H-pyrazol-1-yl]acetyl}-4-fluoropyrrolidine-2-carboxamide]
> 100000 | 2130 | 92 | – | CC(C)c1ccc(C(NC(=O)[C@@H]2C[C@@H](F)CN2C(=O)Cc2ncco2)c2ccn[nH]2)nc1F (single isomer, unassigned) [Compound 630, (2S,4R)-4-fluoro-N-[(S) or (R)-[6-fluoro-5-(propan-2-yl)pyridin-2-yl](1H-pyrazol-5-yl)methyl]-1-[2-(1,3-oxazol-2-yl)acetyl]pyrrolidine-2-carboxamide]
> 100000 | 1210 | 48 | – | CC1(c2ccc([C@@H](NC(=O)[C@@H]3C[C@@H](F)CN3C(=O)CNC(=O)N3CCOCC3)c3ccccc3)cc2F)CC1 [Compound 565, N-{2-[(2S,4R)-4-fluoro-2-{[(S)-[3-fluoro-4-(1-methylcyclopropyl)phenyl](phenyl)methyl]carbamoyl}pyrrolidin-1-yl]-2-oxoethyl}morpholine-4-carboxamide]
> 100000 | 1230 | 75 | – | CC(C)c1ccc([C@@H](NC(=O)[C@@H]2C[C@@H](F)CN2C(=O)Cn2nnnc2C(F)F)c2ccccc2)nc1 [Compound 254, (2S,4R)-1-{2-[5-(difluoromethyl)-1H-1,2,3-tetrazol-1-yl]acetyl}-4-fluoro-N-[(S)-phenyl[5-(propan-2-yl)pyridin-2-yl]methyl]pyrrolidine-2-carboxamide]
> 100000 | 210 | 6 | – | CCn1cc(CC(=O)N2C[C@H](F)C[C@H]2C(=O)N[C@@H](c2ccccc2)c2ccc(C(C)C)c(F)n2)ccc1=O [Compound 792, (2S,4R)-1-[2-(1-ethyl-6-oxo-1,6-dihydropyridin-3-yl)acetyl]-4-fluoro-N-[(S)-[6-fluoro-5-(propan-2-yl)pyridin-2-yl](phenyl)methyl] pyrrolidine-2-carboxamide]
> 100000 | – | 51 | 990 | CCC(C)c1ccc(C(NC(=O)[C@@H]2C[C@@H](F)CN2C(=O)Cc2cnn[nH]2)c2ccccc2)cc1F (single isomer, unassigned) [Compound 677, (2S,4R)-N-[(S) or (R)-{4-[(2R) or (2S)-butan-2-yl]-3-fluorophenyl} (phenyl)methyl]-4-fluoro-1-[2-(1H-1,2,3-triazol-5-yl)acetyl]pyrrolidine-2-carboxamide]
> 100000 | 3590 | 224 | – | CN1CCN(CC(=O)N2C[C@H](F)C[C@H]2C(=O)N[C@@H](c2ccccc2)c2ccc(C3CC3)c(F)c2)C1=O [Compound 425, (2S,4R)-N-[(S)-(4-cyclopropyl-3-fluorophenyl)(phenyl)methyl]-4-fluoro-1-[2-(3-methyl-2-oxoimidazolidin-1-yl)acetyl]pyrrolidine-2-carboxamide]
> 100000 | 1220 | 48 | – | O=C(N[C@@H](c1ccccc1)c1ccc(C2CC(F)(F)C2)cn1)[C@@H]1C[C@@H](F)CN1C(=O)CNC(=O)N1CC(F)(F)C1 [Compound 538, (2S,4R)-1-{2-[(3,3-difluoroazetidine-1-carbonyl)amino]acetyl}-N-[(S)-[5-(3,3-difluorocyclobutyl)pyridin-2-yl](phenyl)methyl]-4-fluoropyrrolidine-2-carboxamide]
> 100000 | 1090 | 67 | – | CC(C)c1ccc([C@@H](NC(=O)[C@@H]2C[C@@H](F)CN2C(=O)Cc2nnc(C(F)F)o2)c2ccccc2)nc1 [Compound 253, (2S,4R)-1-{2-[5-(difluoromethyl)-1,3,4-oxadiazol-2-yl]acetyl}-4-flouro-N-[(S)-phenyl[5-(propan-2-yl)pyridin-2-yl]methyl]pyrrolidine-2-carboxamide]
68200 | 1190 | 69 | – | O=C(N[C@@H](c1ccccc1)c1ccc(C2CC2)c(F)c1)[C@@H]1C[C@@H](F)CN1C(=O)Cc1ccc2ncnn2c1 [Compound 478, (2S,4R)-N-[(S)-(4-cyclopropyl-3-fluorophenyl)(phenyl)methyl]-4-fluoro-1-(2-{[1,2,4]triazolo[1,5-a]pyridin-6-yl}acetyl) pyrrolidine-2-carboxamide]
> 100000 | 1280 | 57 | – | O=C(N[C@@H](c1ccccc1)c1ccc(C2CC(F)(F)C2)cn1)[C@@H]1C[C@@H](F)CN1C(=O)Cc1cnn[nH]1 [Compound 534, (2S,4R)-N-[(S)-[5-(3,3-difluorocyclobutyl)pyridin-2-yl](phenyl)methyl]-4-fluoro-1-[2-(1H-1,2,3-triazol-5-yl)acetyl]pyrrolidine-2-carboxamide]
> 100000 | 160 | 11 | – | O=C(N[C@@H](c1ccccc1)c1ccc(C2CC(F)(F)C2)cn1)[C@@H]1C[C@@H](F)CN1C(=O)Cn1cnc2ccccc21 [Compound 537, (2S,4R)-1-[2-(1H-1,3-benzodiazol-1-yl)acetyl]-N-[(S)-[5-(3,3-difluorocyclobutyl)pyridin-2-yl] (phenyl)methyl]-4-fluoropyrrolidine-2-carboxamide]
> 100000 | 330 | 11 | – | Cc1nccc(NCC(=O)N2C[C@H](F)C[C@H]2C(=O)N[C@@H](c2ccccc2)c2ccc(C3CC3)c(F)n2)n1 [Compound 308, (2S,4R)-N-[(S)-(5-cyclopropyl-6-fluoropyridin-2-yl)(phenyl)methyl]-4-fluoro-1-{2-[(2-methylpyrimidin-4-yl)amino]acetyl}pyrrolidine-2-carboxamide]
> 100000 | 570 | 28 | – | CN(C)C(=O)NCC(=O)N1C[C@H](F)C[C@H]1C(=O)N[C@@H](c1ccccc1)c1ccc(C2CC2)c(F)n1 [Compound 300, (2S,4R)-N-[(S)-(5-cyclopropyl-6-fluoropyridin-2-yl)(phenyl)methyl]-1-{2-[(dimethylcarbamoyl)amino]acetyl}-4-fluoropyrrolidine-2-carboxamide]
> 100000 | 1800 | 144 | – | CC1(c2ccc([C@@H](NC(=O)[C@@H]3C[C@@H](F)CN3C(=O)COC(=O)N3CCC3)c3ccccc3)cc2F)CC1 [Compound 560, 2-[(2S,4R)-4-fluoro-2-{[(S)-[3-fluoro-4-(1-methylcyclopropyl)phenyl](phenyl)methyl]carbamoyl}pyrrolidin-1-yl]-2-oxoethyl azetidine-1-carboxylate]
> 100000 | 210 | 7 | – | Cc1cn(CC(=O)N2C[C@H](F)C[C@H]2C(=O)N[C@@H](c2ccccc2)c2ccc(C3CC(F)(F)C3)c(F)c2)c(=O)[nH]c1=O [Compound 551, (2S,4R)-N-[(S)-[4-(3,3-difluorocyclobutyl)-3-fluorophenyl](phenyl)methyl]-4-fluoro-1-[2-(5-methyl-2,4-dioxo-1,2,3,4-tetrahydropyrimidin-1-yl)acetyl]pyrrolidine-2-carboxamide]
